# Assay results: patent US20240208934A1, “ULK1/2 INHIBITORS AND THEIR USE THEREOF” (LifeArc, priority 2021, published 2024)
# Tested on: ULK
# Experiment: ULK radiometric assay (33P incorporation onto MBP substrate, glass fiber capture filter)
# Conditions: ULK Biochemical activity; 20 uM ATP, 0.2 mg/mL MBP; averages of at least two independent experiments
# Protocol: ULK activity was measured using a radiometric assay, to measure the incorporation of radiolabelled ^33P onto MBP substrate using a glass fiber capture filter method. Reaction conditions were 0.2 mg/mL MBP, 20 uM ATP (0.25 μCi/well), 50 mM Tris HCl, pH7.5, 10 mM MgCl2, 0.1% beta-mercaptoethanol, 0.1 mM EGTA, 0.01% BSA. Ten point Half log Compound dilution series were prepared in 100% DMSO and added to the reaction to give final assay concentration of 10% DMSO. Compounds were tested in duplicate and values normalized to 10% DMSO only controls. The data were fitted to a four parameter fit equation and the IC50 values shown are averages of at least two independent experiments.
row,Compound,IC50
1,"O=C(CCNc1nc(Nc2ccc3c(c2)CCNC3)ncc1C(F)(F)F)N1CCOCC1 [Example 67, 1-Morpholino-3-[[2-(1,2,3,4-tetrahydroisoquinolin-6-ylamino)-5-(trifluoromethyl)pyrimidin-4-yl]amino]propan-1-one]",< 200 nM
2,"COc1cc2c(cc1Nc1ncc(C(F)(F)F)c(NC3CCN(C(C)=O)CC3)n1)CNCC2 [Example 68, 1-[4-[[2-[(6-Methoxy-1,2,3,4-tetrahydroisoquinolin-7-yl)amino]-5-(trifluoromethyl)pyrimidin-4-yl]amino]-1-piperidyl]ethanone]",≥ 1000 nM
3,"CCN(CC)C(=O)C1CCCN(c2nc(Nc3cc4c(cc3OC)CCNC4)ncc2C(F)(F)F)C1 (centres unmarked) [Example 69, N,N-diethyl-1-[2-[(6-methoxy-1,2,3,4-tetrahydroisoquinolin-7-yl)amino]-5-(trifluoromethyl)pyrimidin-4-yl]piperidine-3-carboxamide]",≥ 1000 nM
4,"COc1cc2c(cc1Nc1ncc(C(F)(F)F)c(NCCCn3ccnc3)n1)CNCC2 [Example 70, N4-(3-imidazol-1-ylpropyl)-N2-(6-methoxy-1,2,3,4-tetrahydroisoquinolin-7-yl)-5-(trifluoromethyl)pyrimidine-2,4-diamine]",200 to 1000 nM
5,"COc1cc2c(cc1Nc1ncc(C(F)(F)F)c(N3CCC(NC(C)=O)CC3)n1)CNCC2 [Example 71, N-[1-[2-[(6-methoxy-1,2,3,4-tetrahydroisoquinolin-7-yl)amino]-5-(trifluoromethyl)pyrimidin-4-yl]-4-piperidyl]acetamide]",≥ 1000 nM
6,"COc1cc2c(cc1Nc1ncc(C(F)(F)F)c(NC3CCN(S(C)(=O)=O)CC3)n1)CNCC2 [Example 72, N2-(6-methoxy-1,2,3,4-tetrahydroisoquinolin-7-yl)-N4-(1-methylsulfonyl-4-piperidyl)-5-(trifluoromethyl)pyrimidine-2,4-diamine]",≥ 1000 nM
7,"COc1cc2c(cc1Nc1ncc(C(F)(F)F)c(NCCCn3cccn3)n1)CNCC2 [Example 73, N2-(6-methoxy-1,2,3,4-tetrahydroisoquinolin-7-yl)-N4-(3-pyrazol-1-ylpropyl)-5-(trifluoromethyl)pyrimidine-2,4-diamine]",≥ 1000 nM
8,"COc1cc2c(cc1Nc1ncc(C3CC3)c(NCCCNC(=O)C3CCC3)n1)CNCC2 [Example 74, N-[3-[[5-cyclopropyl-2-[(6-methoxy-1,2,3,4-tetrahydroisoquinolin-7-yl)amino]pyrimidin-4-yl]amino]propyl]cyclobutanecarboxamide]",≥ 1000 nM
9,"COc1cc2c(cc1Nc1ncc(C3CC3)c(NCCCN3CCCCC3=O)n1)CNCC2 [Example 75, 1-[3-[[5-Cyclopropyl-2-[(6-methoxy-1,2,3,4-tetrahydroisoquinolin-7-yl)amino]pyrimidin-4-yl]amino]propyl]piperidin-2-one]",200 to 1000 nM
10,"CN1CCc2cc(Nc3ncc(C(F)(F)F)c(NCCCN4CCCC4=O)n3)ccc2C1 [Example 76, 1-[3-[[2-[(2-Methyl-3,4-dihydro-1H-isoquinolin-6-yl)amino]-5-(trifluoromethyl)pyrimidin-4-yl]amino]propyl]pyrrolidin-2-one]",< 200 nM
11,"O=C1CCCN1CCCNc1nc(Nc2ccc3c(c2)CNCC3)ncc1C(F)(F)F [Example 77, 1-[3-[[2-(1,2,3,4-Tetrahydroisoquinolin-7-ylamino)-5-(trifluoromethyl)pyrimidin-4-yl]amino]propyl]pyrrolidin-2-one]",≥ 1000 nM
12,"COc1cc2c(cc1Nc1ncc(C(F)(F)F)c(NCC3CNCCO3)n1)CNCC2 (centres unmarked) [Example 78, N2-(6-methoxy-1,2,3,4-tetrahydroisoquinolin-7-yl)-N4-(morpholin-2-ylmethyl)-5-(trifluoromethyl)pyrimidine-2,4-diamine]",200 to 1000 nM
13,"COc1cc2c(cc1Nc1ncc(C(F)(F)F)c(NCCC(=O)N3CCOCC3)n1)CNCC2 [Example 79, 3-[[2-[(6-Methoxy-1,2,3,4-tetrahydroisoquinolin-7-yl)amino]-5-(trifluoromethyl)pyrimidin-4-yl]amino]-1-morpholino-propan-1-one]",200 to 1000 nM

# The next lines start with the values.
row,IC50,Compound
1,200 to 1000 nM,"O=C(CCNc1nc(Nc2cccc(OC3CCNCC3)c2)ncc1C(F)(F)F)N1CCOCC1 [Example 80, 1-Morpholino-3-[[2-[3-(4-piperidyloxy)anilino]-5-(trifluoromethyl)pyrimidin-4-yl]amino]propan-1-one]"
2,< 200 nM,"COc1cc2c(cc1Nc1ncc(C(F)(F)F)c(NCCCN3CCCC3=O)n1)CNCC2 [Example 81, 1-[3-[[2-[(6-Methoxy-1,2,3,4-tetrahydroisoquinolin-7-yl)amino]-5-(trifluoromethyl)pyrimidin-4-yl]amino]propyl]pyrrolidin-2-one]"
3,< 200 nM,"COc1cc2c(cc1Nc1ncc(C(F)(F)F)c(NCCCNC(=O)C3CCC3)n1)CNCC2 [Example 82, N-[3-[[2-[(6-methoxy-1,2,3,4-tetrahydroisoquinolin-7-yl)amino]-5-(trifluoromethyl)pyrimidin-4-yl]amino]propyl]cyclobutanecarboxamide]"
4,< 200 nM,"O=C1CCCCN1CCCNc1nc(Nc2ccc3c(c2)CNCC3)ncc1C(F)(F)F [Example 83, 1-[3-[[2-(1,2,3,4-Tetrahydroisoquinolin-7-ylamino)-5-(trifluoromethyl)pyrimidin-4-yl]amino]propyl]piperidin-2-one]"
5,≥ 1000 nM,"CN(C)CCCNc1nc(Nc2cccc(OC3CCN(C)CC3)c2)ncc1C1CC1 [Example 84, 5-Cyclopropyl-N4-(3-(dimethylamino)propyl)-N2-(3-(1-methylpiperidin-4-yloxy)phenyl)pyrimidine-2,4-diamine]"
6,< 200 nM,"FC(F)(F)c1cnc(Nc2cnn(C3CCNC3)c2)nc1NCc1cc[nH]n1 (centres unmarked) [Example 85, N4-(1H-pyrazol-3-ylmethyl)-N2-(1-pyrrolidin-3-ylpyrazol-4-yl)-5-(trifluoromethyl)pyrimidine-2,4-diamine]"
7,200 to 1000 nM,"FC(F)(F)c1cnc(Nc2ccc(CCN3CCCC3)cc2)nc1NCc1cc[nH]n1 [Example 86, N4-(1H-pyrazol-3-ylmethyl)-N2-[4-(2-pyrrolidin-1-ylethyl)phenyl]-5-(trifluoromethyl)pyrimidine-2,4-diamine]"
8,200 to 1000 nM,"FC(F)(F)c1cnc(Nc2ccc(N3CCOCC3)cc2)nc1NCC1CCNC1 (centres unmarked) [Example 87, N2-(4-morpholinophenyl)-N4-(pyrrolidin-3-ylmethyl)-5-(trifluoromethyl)pyrimidine-2,4-diamine]"
9,200 to 1000 nM,"N[C@H]1CC[C@H](Nc2nc(Nc3ccc(N4CCOCC4)cc3)ncc2C(F)(F)F)CC1 [Example 88, N4-(4-aminocyclohexyl)-N2-(4-morpholinophenyl)-5-(trifluoromethyl)pyrimidine-2,4-diamine]"
10,200 to 1000 nM,"FC(F)(F)c1cnc(Nc2ccc(N3CCOCC3)cc2)nc1NCCC1CCNCC1 [Example 89, N2-(4-morpholinophenyl)-N4-[2-(4-piperidyl)ethyl]-5-(trifluoromethyl)pyrimidine-2,4-diamine]"
11,200 to 1000 nM,"FC(F)(F)c1cnc(Nc2ccc(N3CCOCC3)cc2)nc1NCC1CNCCO1 (centres unmarked) [Example 90, N2-(4-morpholinophenyl)-N4-(morpholin-2-ylmethyl)-5-(trifluoromethyl)pyrimidine-2,4-diamine]"
12,200 to 1000 nM,"FC(F)(F)c1cnc(Nc2ccc(N3CCOCC3)cc2)nc1NCCc1c[nH]cn1 [Example 91, N4-[2-(1H-imidazol-4-yl)ethyl]-N2-(4-morpholinophenyl)-5-(trifluoromethyl)pyrimidine-2,4-diamine]"
13,≥ 1000 nM,"FC(F)(F)c1cnc(Nc2ccc(N3CCOCC3)cc2)nc1NCc1cn[nH]c1 [Example 92, N2-(4-morpholinophenyl)-N4-(1H-pyrazol-4-ylmethyl)-5-(trifluoromethyl)pyrimidine-2,4-diamine]"
